Results published in patent US20230126447A1, “OCULAR DRUG DEPOT FOR COMPLEMENT-MEDIATED DISORDERS” (priority 2020, published 2023).
Values belong to the compound of their own block, whether it stands above or below them.

How the values were obtained:
[1] = In vitro binding to melanin from Sepia officinalis; conditions: S. officinalis melanin 50 μg/mL, PBS, 37° C., 1 hour
Description: (§1) […] The melanin solution was stored in the dark at 37° C. until use.
(§2) Immediately after the assay, samples were added to an equal volume of warm PBS, aliquots (3 μL each) were removed, added to 100 μL of acetonitrile containing carbutamide as internal standard, and then diluted with water (197 μL). These time-zero samples, prepared in PBS only, were also used as calibration standards.
(§3) The assay plates containing samples with and without melanin were incubated in the dark with shaking at 37° C. for 1 hour. Following incubation, the samples were centrifuged for 15 minutes at approximately 4000 rpm at 37° C. to sediment the melanin. Sample supernatant (3 μL) was added to 100 μL of acetonitrile containing the internal standard and then diluted with water (197 μL).
(§4) The column was set to a temperature of 55° C. […]
(§5) Analytes and internal standards were detected using an Applied Biosystems Sciex API-5500 triple quadrupole mass spectrometer with Agilent 1260 Infinity Binary Pump and Apricot Designs ADDA High-Speed Dual Arm Autosampling System. The instrument was equipped with an electrospray ionization source (600° C.) operated in the positive ion mode. Analytes and internal standards for all samples were monitored in the multiple-reaction-monitoring scan mode.

[2] = Stability under melanin binding assay conditions; conditions: PBS, 37° C., 1 hour vs time zero
Description: as §1, §3
% Stability=Mean Total Conc. (μM) after 1 Hour/Mean Total Conc. (μM) at Time Zero×100%

[3] = In vitro binding to synthetic melanin; conditions: synthetic melanin 50 μg/mL, PBS, 37° C., 1 hour
Description: as §1, §2, §3, §4, §5

[4] = QWBA tissue distribution of [14C] Compound 2, Long-Evans rats (PO, IV); type: in vivo
Description: (§6) The study was conducted to determine the tissue distribution of [^14C] Compound 2-derived radioactivity following a single oral gavage (PO) administration of 20 mg/kg (100 μCi/kg) of [^14C] […] Compound 2 to a male Long-Evans rat using quantitative whole body autoradiography (QWBA).
(§7) A total of ten male Long-Evans and three male Wistar Hannover rats were administered a single PO dose of [^14C] […] One male Long-Evans rat was administered a single IV dose of [^14C] […] (See Table 3). One animal per group per strain was anesthetized by inhalation of isoflurane gas at designated time points post-dose, followed by blood collection via cardiac puncture and euthanasia by isoflurane overdose. Each carcass was then frozen in a dry ice/hexane bath. Blood and plasma samples were assayed for total radioactivity (TRA) concentrations by liquid scintillation counting (LSC). The tissue concentrations of TRA were determined using validated QWBA techniques. Pharmacokinetic parameters of derived radioactivity in blood, plasma, and tissues were calculated, to the extent possible, using Phoenix© WinNonlin® (Version 6.3, Pharsight Corporation; Mountain View, Calif.).

[5] = QWBA tissue distribution of [14C] Compound 2, Wistar Hannover rats (PO); type: in vivo; conditions: 20 mg/kg PO
Description: as §6, §7

CFD = CFD (Homo sapiens, UniProt P00746); experiment: Inhibitory effect on CFD; type: biochemical
Sequence of CFD (P00746 26-253): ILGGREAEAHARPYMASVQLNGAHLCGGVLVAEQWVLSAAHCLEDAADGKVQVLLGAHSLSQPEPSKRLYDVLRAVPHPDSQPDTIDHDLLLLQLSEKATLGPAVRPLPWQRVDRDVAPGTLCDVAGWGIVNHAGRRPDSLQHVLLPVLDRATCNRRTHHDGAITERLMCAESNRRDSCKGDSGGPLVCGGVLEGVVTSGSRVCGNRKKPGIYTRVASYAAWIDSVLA

[6] = male Long-Evans rats, 20 mg/kg PO
[7] = male Wistar Hannover rats, 1 h post-dose
[8] = male Wistar Hannover rats, 24 h post-dose

Bmax (binding capacity) [1]: 280 nmol/mg melanin | Mean Stability [2]: 87.3% | Bmax (binding capacity) [3]: 308 nmol/mg melanin
Structure (SMILES): CCN(CC)CCCC(C)Nc1ccnc2cc(Cl)ccc12 (stereo not shown) [Chloroquine, chloroquine, reference compound]

Radioactivity in the central nervous system ([4]; male Long-Evans rat, 5 mg/kg IV, […] post-dose): 0.201 μg equiv/g tissue | Tissue:plasma AUC0-t ratio, majority of tissues [4, 6]: greater than 1.00 | Tmax, majority of tissues [4, 6]: 1 h | Total plasma radioactivity ([4]; male Long-Evans rats, 20 mg/kg PO, 48 h post-dose): BLQ | Blood concentration of radioactivity ([4]; male Long-Evans rats, 20 mg/kg PO, 72 h post-dose): BLQ | Concentration of radioactivity, eye and uveal tract ([4]; male Long-Evans rats, 20 mg/kg PO, 840 h post-dose): 0.212 μg equiv/g tissue | Radioactivity in the central nervous system ([5]; Wistar Hannover rat, 1 h post-dose): 0.179 μg equiv/g tissue | Tmax, all tissues ([5]; male Wistar Hannover rats): 1 h | Tissue to plasma concentration ratio, brain [5, 7]: 0.04 | Tissue to plasma concentration ratio, cecum mucosa [5, 7]: 0.96 | Tissue to plasma concentration ratio, kidney medulla [5, 7]: 12.6 | Tissue to plasma concentration ratio, stomach wall non-glandular [5, 7]: 1.00 | Tissue to plasma ratio, bone marrow [5, 8]: 2.90 | Tissue to plasma ratio, stomach wall non-glandular [5, 8]: 100 | Total plasma radioactivity ([5]; male Wistar Hannover rats, 168 h post-dose): BLQ
Structure (SMILES): CC(=O)c1nn(CC(=O)N2[C@H](C(=O)Nc3nc(Br)ccc3C)C[C@@]3(C)C[C@@H]23)c2ccc(-c3cnc(C)nc3)cc12 [Compound 2, (1R,3S,5R)-2-(2-(3-acetyl-5-(2-methylpyrimidin-5-yl)-1H-indazol-1-yl)acetyl)-N-(6-bromo-3-methylpyridin-2-yl)-5-methyl-2-azabicyclo[3.1.0]hexane-3-carboxamide]

Structure (SMILES): CC(=O)c1cn(CC(=O)N2[C@H](C(=O)Nc3nc(Br)ccc3C)C[C@@]3(C)C[C@@H]23)c2c(C)cc(-c3cnc(C)nc3)cc12 [Compound 3, (1R,3S,5R)-2-(2-(3-acetyl-7-methyl-5-(2-methylpyrimidin-5-yl)-1H-indol-1-yl)acetyl)-N-(6-bromo-3-methylpyridin-2-yl)-5-methyl-2-azabicyclo[3.1.0]hexane-3-carboxamide]
IC50 (CFD): 32.1 nM
